Results published in patent publication US10213392B2, “Pharmaceutical composition for use in medical and veterinary ophthalmology” (Mitotech SA, priority 2009, dated 2019).
Entries after “also recorded” stand apart in the source; their conditions may differ.

How the values were obtained:
[1] = Stability of SkQ1 in solutions containing benzalkonium chloride (storage 24 hours at room temperature, HPLC-MS/MS); format: physicochemical; settings: for Determined concentration of SkQ1 in 24 hours: 10 mM sodium phosphate pH 6.5, 0.9% NaCl
Experimental: (§1) Materials and Method for Quantitative Detection of SkQ1
(§2) Analysis is carried out by high-performance liquid chromatography with MS/MS detection.
(§3) 100 μL of the internal standard solution is placed into a 10 ml flask, 5 ml of the water-ethanol solution is added and stirred for 11 min. 500 μL of sample solution is added to 0.1 ml of a 0.5 M solution of 3-chloroperbenzoic acid in ethanol, and the volume is adjusted to the mark with ethanol-water solution and stirred for 30 min. 1 ml of the resulting solution is transferred into a chromatographic vial.
(§4) The chromatographic conditions are as follows: The device used is a Waters ACQUITY UPLC®. The column used is steel, 2.1×50 mm, filled with sorbent Acquity BEH C18, 1.7 μm (Waters, P/N 186002350) or equivalent. The column temperature is 35° C. The mobile phase is eluent A: 20 mM solution of formic acid in 5% aqueous acetonitrile and eluent B: 20 mM solution of formic acid in aqueous acetonitrile. The flow rate is 0.5 ml/min. The volume of injection is the total loop (about 11 μL). The elution mode is a gradient of eluents A and B according to Table 4.
(§5) The time of the analysis is about 5 min. The detector is a Waters TQD (tri-quadrupole) for MS/MS.
(§6) The conditions of detection is as follows: The electrospraying mode is positive (ES+). The working mode is monitoring of reactions of settled ions (MRM). The temperature of the ion source is 120° C. The vaporization temperature is 450° C. The cone voltage is 55 V. The capillary voltage is 3.0 kV. The collision gas (CID) is argon. The collision gas flow rate is 0.18 ml/min. The collision gas pressure (CID) is 4.5×10^−3 mbar. The transitions of scans and collision energy are according to Table 5.
(§7) The SkQ1 content in the product (μg/ml) was calculated using the equation:
(§8) [formula] • “S/Ssmpl” is the ratio of peak areas and SkQ1 and SkQ1-d15 in chromatograms of the sample solution; • “S/Sstd” is the ratio of SkQ1 and SkQ1-d15 peak areas in chromatograms of the SS solution; • “a” is the amount of SkQ1 taken to prepare the original standard solution, in mgs; • “W” is the water content and organic solvents in SkQ1 substance taken to prepare the original standard solution, in percent; and • “P” is the SkQ1 content in SkQ1 substance taken to prepare the original standard solution, in percent.

[2] = Stability of SkQ1 in solutions with different prolongators (storage 50 days at room temperature, HPLC-MS/MS); format: physicochemical; settings: for Relative content of SkQ1 after incubation for 50 days: 10 mM sodium phosphate pH 6.5, 0.9% NaCl, 0.01% benzalkonium chloride, room temperature
Experimental: as §1, §2, §3, §4, §5, §6, §7, §8

Decrease of the concentration of SkQ1 ([1]; absence of benzalkonium chloride, 24 hours): 58%
Determined concentration of SkQ1 in 24 hours ([1]; benzalkonium chloride 0 (control) %, added SkQ1 250 nM): 104 nM
Relative content of SkQ1 ([1]; benzalkonium chloride 0 (control) %, added SkQ1 250 nM, 24 hours): 42%
Determined concentration of SkQ1 in 24 hours ([1]; benzalkonium chloride 0.01%, added SkQ1 50 nM): 56 nM
Relative content of SkQ1 ([1]; benzalkonium chloride 0.01%, added SkQ1 50 nM, 24 hours): 112%
Determined concentration of SkQ1 in 24 hours ([1]; benzalkonium chloride 0.01%, added SkQ1 100 nM): 97 nM
Relative content of SkQ1 ([1]; benzalkonium chloride 0.01%, added SkQ1 100 nM, 24 hours): 97%
Determined concentration of SkQ1 in 24 hours ([1]; benzalkonium chloride 0.01%, added SkQ1 180 nM): 180 nM
Relative content of SkQ1 ([1]; benzalkonium chloride 0.01%, added SkQ1 180 nM, 24 hours): 100%
Determined concentration of SkQ1 in 24 hours ([1]; benzalkonium chloride 0.01%, added SkQ1 250 nM): 254 nM
Relative content of SkQ1 ([1]; benzalkonium chloride 0.01%, added SkQ1 250 nM, 24 hours): 102%
Relative content of SkQ1 after incubation for 50 days ([2]; 0.2% HPMC): 93%
Effect of prolongator on SkQ1 concentration during storage (in words) ([2]; 0.2% HPMC, 50 days at room temperature): stabilizes the concentration
Relative content of SkQ1 after incubation for 50 days ([2]; 0.2% MC): 79%
Relative content of SkQ1 after incubation for 50 days ([2]; control (no prolongator)): 83%
Compound: Br.CC1=C(C)C(=O)C(CCCCCCCCCC[P+](c2ccccc2)(c2ccccc2)c2ccccc2)=CC1=O [SkQ1]
Decrease of SkQ1 concentration during storage (in words) ([1]; addition of 0.01% benzalkonium chloride, SkQ1 up to 250 nM, 24 hours): completely prevented; also recorded: prevents a decrease in the concentration
